The results in this text go back to article PMC6165432 (International Journal of Molecular Sciences, 2018).

Structures are written as SMILES.

One series addresses T1, mouse AhR (mAhR) (Mus musculus, UniProt P30561).
T1 sequence (P30561 10-805): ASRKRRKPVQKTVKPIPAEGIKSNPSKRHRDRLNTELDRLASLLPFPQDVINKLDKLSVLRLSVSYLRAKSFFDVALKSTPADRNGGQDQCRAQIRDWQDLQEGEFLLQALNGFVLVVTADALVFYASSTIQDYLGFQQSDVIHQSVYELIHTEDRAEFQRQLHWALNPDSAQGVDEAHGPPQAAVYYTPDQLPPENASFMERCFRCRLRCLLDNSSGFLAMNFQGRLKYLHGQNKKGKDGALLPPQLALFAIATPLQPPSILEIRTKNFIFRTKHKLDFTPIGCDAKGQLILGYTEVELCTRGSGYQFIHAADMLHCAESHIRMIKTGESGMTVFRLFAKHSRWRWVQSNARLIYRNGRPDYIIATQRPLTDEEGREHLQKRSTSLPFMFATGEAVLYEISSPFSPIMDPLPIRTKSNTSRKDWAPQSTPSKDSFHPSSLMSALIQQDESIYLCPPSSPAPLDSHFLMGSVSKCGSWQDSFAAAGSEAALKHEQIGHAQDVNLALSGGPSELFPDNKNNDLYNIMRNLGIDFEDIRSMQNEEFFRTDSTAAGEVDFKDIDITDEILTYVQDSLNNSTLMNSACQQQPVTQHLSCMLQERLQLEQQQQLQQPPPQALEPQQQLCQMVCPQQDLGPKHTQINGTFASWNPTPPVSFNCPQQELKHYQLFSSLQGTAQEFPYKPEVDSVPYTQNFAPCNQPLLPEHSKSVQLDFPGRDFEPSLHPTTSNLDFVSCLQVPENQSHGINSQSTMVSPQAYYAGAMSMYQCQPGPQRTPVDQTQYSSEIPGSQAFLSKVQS
Nature of the series: AhR-responsive luciferase reporter gene assay in stably transfected mouse H1L6.1c3 hepatoma cells. Type of series: cell-based. The following applies: mouse H1L6.1c3 hepatoma cells, 4 h, mean ± SD of nine analyses; read-out: EC50 to stimulate luciferase reporter gene expression, Mouse.

The target in the next series is T2, human AhR (hAhR) (Homo sapiens, UniProt P35869).
T2 sequence (P35869 11-848): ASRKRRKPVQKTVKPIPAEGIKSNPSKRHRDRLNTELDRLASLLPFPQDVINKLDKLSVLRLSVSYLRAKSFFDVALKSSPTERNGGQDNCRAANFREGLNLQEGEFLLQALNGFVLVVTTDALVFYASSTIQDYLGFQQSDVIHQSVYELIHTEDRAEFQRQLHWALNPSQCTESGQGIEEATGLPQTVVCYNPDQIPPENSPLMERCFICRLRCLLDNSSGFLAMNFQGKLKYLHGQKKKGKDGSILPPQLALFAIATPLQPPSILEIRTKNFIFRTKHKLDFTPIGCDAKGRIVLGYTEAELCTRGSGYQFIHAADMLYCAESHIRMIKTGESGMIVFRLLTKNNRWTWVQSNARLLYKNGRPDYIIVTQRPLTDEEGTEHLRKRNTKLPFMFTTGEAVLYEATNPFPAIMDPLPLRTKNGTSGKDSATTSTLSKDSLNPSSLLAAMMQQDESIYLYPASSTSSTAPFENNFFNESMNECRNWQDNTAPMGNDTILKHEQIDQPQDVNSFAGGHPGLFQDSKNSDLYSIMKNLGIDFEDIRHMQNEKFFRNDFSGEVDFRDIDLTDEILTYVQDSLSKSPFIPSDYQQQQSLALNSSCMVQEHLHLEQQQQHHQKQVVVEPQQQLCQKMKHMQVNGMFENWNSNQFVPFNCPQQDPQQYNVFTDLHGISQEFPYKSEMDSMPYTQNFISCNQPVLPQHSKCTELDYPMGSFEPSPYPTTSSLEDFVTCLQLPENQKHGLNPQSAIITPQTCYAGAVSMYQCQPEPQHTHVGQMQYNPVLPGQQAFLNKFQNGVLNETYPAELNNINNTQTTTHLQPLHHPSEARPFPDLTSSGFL
The series can be described thus: AhR-responsive luciferase reporter gene assay in stably transfected human HG2L6.1c1 hepatoma cells.

The next series concerns the target mAhR (Mus musculus, UniProt P30561, M324I). Set-up: host or cells: rabbit reticulocyte lysate, coupled transcription/translation. Conditions: in vitro synthesized AhRs, specific binding. The method, then: (§1) [^3H]TCDD specific binding was determined by subtracting the amount of [^3H]TCDD bound to unprogrammed lysate (nonspecific binding) from the total amount of [^3H]TCDD binding to lysate containing in vitro expressed AhR.

Another series has as its target mutant mAhR A349T (Mus musculus, UniProt P30561, A349T/M324I). Also noted: host or cells: rabbit reticulocyte lysate, coupled transcription/translation. The following applies: specific binding. As to the method:
as §1

Sequence of mutant mAhR A349T (P30561 10-805 M324I/A349T limits assumed): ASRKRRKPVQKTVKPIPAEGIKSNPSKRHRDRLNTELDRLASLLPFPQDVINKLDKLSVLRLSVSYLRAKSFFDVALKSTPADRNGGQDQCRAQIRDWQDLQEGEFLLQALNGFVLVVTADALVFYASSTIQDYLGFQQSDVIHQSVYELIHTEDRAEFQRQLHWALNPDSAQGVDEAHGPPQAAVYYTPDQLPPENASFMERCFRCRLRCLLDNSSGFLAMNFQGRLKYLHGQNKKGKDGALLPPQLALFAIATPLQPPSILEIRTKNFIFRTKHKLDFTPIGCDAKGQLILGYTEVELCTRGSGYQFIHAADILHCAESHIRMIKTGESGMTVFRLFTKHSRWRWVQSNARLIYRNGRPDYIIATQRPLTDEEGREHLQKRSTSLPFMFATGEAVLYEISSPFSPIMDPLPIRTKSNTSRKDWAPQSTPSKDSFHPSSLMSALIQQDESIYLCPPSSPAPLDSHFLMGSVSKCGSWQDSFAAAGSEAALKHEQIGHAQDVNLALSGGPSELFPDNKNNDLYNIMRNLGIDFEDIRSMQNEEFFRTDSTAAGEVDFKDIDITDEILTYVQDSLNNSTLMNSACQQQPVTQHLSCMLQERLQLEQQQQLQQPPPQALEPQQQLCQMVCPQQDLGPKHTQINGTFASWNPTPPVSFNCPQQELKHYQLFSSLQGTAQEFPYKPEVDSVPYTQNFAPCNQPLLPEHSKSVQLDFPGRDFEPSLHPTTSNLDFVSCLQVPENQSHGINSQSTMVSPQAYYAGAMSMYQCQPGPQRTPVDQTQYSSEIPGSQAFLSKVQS
Sequence of mAhR (P30561 10-805 M324I limits assumed): as the sequence (P30561 10-805 M324I/A349T limits assumed) above, with T340A counted along it
Method for human AhR (hAhR): (§2) AhR-dependent gene transcription was determined in (A) human HG2L6.1c.1 and (B) mouse H1L6.1c.3 hepatoma cell lines that contain a stably transfected AhR-responsive luciferase reporter gene. […] Luciferase activity (Relative Light Units (RLUs)) was normalized to the maximal induction observed with TCDD in each cell line. Values represent the mean ± SD of nine independent analyses.
(§3) Recombinant mouse (H1L6.1c3) and human (HG2L6.1c1) hepatoma cells containing a stably integrated AhR-responsive luciferase reporter gene plasmid (pGudLuc6.1) were plated (750,000 cells/well) in 96-well plates and incubated at 37 °C for 24 h prior to chemical treatment. Cells were incubated with DMSO (1% (v/v)) or the indicated concentration of test chemical in DMSO for 4 h, followed by visual inspection of the cells for toxicity, washing of the cells with phosphate-buffered saline (PBS), addition of 50 µL of passive lysis buffer (Promega) and lysis of cells for 20 min at room temperature with shaking [50]. Luciferase activity in each well was measured (integrating luminescence over 10 s with a 10 s delay) in an Orion microplate luminometer (Berthold Detection Systems, Bad Wildbad, Germany) following automatic injection of Promega stabilized luciferase reagent.
(§4) Analysis of statistical significance of differences between experimental values was conducted using Two-Way ANOVA and EC50s and IC50s were calculated using nonlinear regression (three parameter) analysis in GraphPad Prism v.7 (La Jolla, CA, USA).
Method for mouse AhR (mAhR): as §2, §3, §4

Regarding `Clc1cc2oc3cc(Cl)c(Cl)cc3c2cc1Cl` [TCDF, 2,3,7,8-tetrachlorodibenzofuran], the EC50 on mouse AhR (mAhR) was determined as 1.25 ± 0.65 nM; on human AhR (hAhR) it was 4.1 ± 0.79 nM. For the compound `O=Cc1c2[nH]c3ccccc3c2cc2[nH]c3ccccc3c12` [FICZ, 6-formylindolo[3,2-b]carbazole], the EC50 at mouse AhR (mAhR) was found to be 3.71 ± 0.85 nM. With `COC(=O)c1csc(C(=O)c2c[nH]c3ccccc23)n1` [ITE, 2-(1H-Indol-3-ylcarbonyl)-4-thiazolecarboxylic acid methyl ester], the EC50 at 4 h on mouse AhR (mAhR) came to 22.3 ± 3.53 nM. The same compound showed an EC50 at human AhR (hAhR) of 184 ± 42.1 nM.

For the compound `Clc1cc2c(cc1Cl)Oc1cc(Cl)c(Cl)cc1O2` [[^3H]TCDD], the “more [3H]TCDD bound to wild-type mAhR than to the mAhR-hAhRLBD chimera” value on mAhR is given as ~ 10%. Besides, the “[3H]TCDD binding to A349T mutant mAhR compared with wild-type mAhR” value on mutant mAhR A349T was “not significantly different from that of the wild-type mAhR”.
